Assay: recombinant UMI read abundance after kanamycin selection (control-corrected) (log10(CPM+1)); higher = more efficient recombination; extreme values may be limits of the assay; sequences stand for … in AGTGCAGAGAAAATCGGCCAGTTTTCTCTGCCTGCAGTCCGCATGCCGTGGGACCCCTTGGGTTCTAACCTGTTGCCTAGATTTATGCAGCGGACTGCCTTTCTCCCAAAGTGATAAACCGG…AGGTTGGTTTCACT; site = the 11-nt donor
In short: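 After plating on IPTG (0.07 mM) plus kanamycin, or unselected, in two replicates, recombinant UMIs were PCR-amplified across the donor–target junction and sequenced. The cells were Escherichia coli co-electroporated with a UMI-tagged donor and donor-binding-loop pair library and a target plasmid with a fixed target and T7-inducible IS621 bridge recombinase. Values are log10(CPM+1), with CPM averaged over replicates and scaled by control-derived factors.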

Row | Sequence | recombinant UMI read abundance (log10)
1 | CGGGATCCATGGACCGGTTTTCCCGGTAATCCGTATTTGCT (site CGGGATCCTAG) | 0
2 | CGGGCACCATGGACCGGTTTTCCCGGTAATCCGTATTTGCA (site AGGGCACCTTG) | 0.0117
3 | CGGGCACCATGGACCGGTTTTCCCGGTAATCCGTATTTGCA (site CGGGCACCTTG) | 0
4 | CGGGCACCATGGACCGGTTTTCCCGGTAATCCGTATTTGCA (site GGGGCACCTTG) | 0.00963
5 | CGGGCACCATGGACCGGTTTTCCCGGTAATCCGTATTTGCA (site TGGGCACCTTG) | 0
6 | CGGGGACCATGGACCGGTTTTCCCGGTAATCCGTATTTGAT (site CGGGAACCTAT) | 0
7 | CGGGGACCATGGACCGGTTTTCCCGGTAATCCGTATTTGAT (site CGGGCACCTAT) | 0.00825
8 | CGGGGACCATGGACCGGTTTTCCCGGTAATCCGTATTTGAT (site CGGGGACCTAT) | 0
9 | CGGGGACCATGGACCGGTTTTCCCGGTAATCCGTATTTGAT (site CGGGTACCTAT) | 0
10 | CGGGGACCATGGACCGGTTTTCCCGGTAATCCGTATTTGGG (site CGAGGACCTCC) | 0.0137
11 | CGGGGACCATGGACCGGTTTTCCCGGTAATCCGTATTTGGG (site CGCGGACCTCC) | 0.0363
12 | CGGGGACCATGGACCGGTTTTCCCGGTAATCCGTATTTGGG (site CGGGGACCTCC) | 0.0134
13 | CGGGGACCATGGACCGGTTTTCCCGGTAATCCGTATTTGGG (site CGTGGACCTCC) | 0.00366
14 | CGGGGCGCATGGACCGGTTTTCCCGGTAATCCGTATTTGAA (site CGGGGCGCTTT) | 1.26
15 | CGGGGCGCATGGACCGGTTTTCCCGGTAATCCGTATTTGGC (site CGGGGCGCTGC) | 3.06
16 | CGGGGCTCATGGACCGGTTTTCCCGGTAATCCGTATTTGCA (site CGGGGCTCTTG) | 2.79
17 | CGGGGTCCATGGACCGGTTTTCCCGGTAATCCGTATTTGAT (site CGGGGTCCTAT) | 0

Row | Sequence | recombinant UMI read abundance (log10)
18 | CGGGTTGCATGGACCGGTTTTCCCGGTAATCCGTATTTGGT (site CGGGTTGCTAC) | 1.77
19 | CGGTACCCATGGACCGGTTTTCCCGGTAATCCGTATTTGAG (site CGGTACCCTCT) | 0.188
20 | CGGTCACCATGGACCGGTTTTCCCGGTAATCCGTATTTGTA (site CGGTCACCTTA) | 0
21 | CGGTCATCATGGACCGGTTTTCCCGGTAATCCGTATTTGCA (site CGATCATCTAG) | 0.01
22 | CGGTCATCATGGACCGGTTTTCCCGGTAATCCGTATTTGCA (site CGGTCATCTTG) | 0.39
23 | CGGTCCTCATGGACCGGTTTTCCCGGTAATCCGTATTTGCA (site CGGTCCTCTTG) | 0
24 | CGGTCTGCATGGACCGGTTTTCCCGGTAATCCGTATTTGAG (site CGGTCTGCTCT) | 0.251
25 | CGGTTGCCATGGACCGGTTTTCCCGGTAATCCGTATTTGGC (site CGGTTGCCTGC) | 0
26 | CGTAATCCATGGACCGGTTTTCCCGGTAATCCGTATTTGAT (site CGGAATCCTAA) | 0
27 | CGTAATCCATGGACCGGTTTTCCCGGTAATCCGTATTTGAT (site CGTAATCCTAT) | 0.697
28 | CGTAATCCATGGACCGGTTTTCCCGGTAATCCGTATTTGTC (site CGGAATCCTAA) | 0
29 | CGTAATCCATGGACCGGTTTTCCCGGTAATCCGTATTTGTC (site CGTAATCCTGA) | 1.47
30 | CGTACACCATGGACCGGTTTTCCCGGTAATCCGTATTTGAC (site AGTACACCTGT) | 0
31 | CGTACACCATGGACCGGTTTTCCCGGTAATCCGTATTTGAC (site CGTACACCTGT) | 0
32 | CGTACACCATGGACCGGTTTTCCCGGTAATCCGTATTTGAC (site GGTACACCTGT) | 0
33 | CGTACACCATGGACCGGTTTTCCCGGTAATCCGTATTTGAC (site TGTACACCTGT) | 0
34 | CGTACCGCATGGACCGGTTTTCCCGGTAATCCGTATTTGTC (site CGTACCGCTGA) | 2.78

Source: the supplement of paper PMC11208160
